We go through eleven molecules from ChEMBL document CHEMBL1201862, “PubChem BioAssay data set” (2004).

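Dose response: 5 concentrations. Exposure: 48 h. Format: 96-well plates. Endpoint: linear interpolation; highest concentration if not reached. Here, GI50 denotes the concentration required for 50% inhibition of growth.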 Calls of active or inactive are those of the source. Rule as the data show it: active = GI50 up to about 1.1 µM and inactive = higher.

Among the test systems are NCI-H460; SF-539; SK-OV-3; SF-268; OVCAR-3; NCI-H226; SR; RXF 393; MOLT-4; SK-MEL-2; HOP-92; M14; Malme-3M; K562; HL-60; TK-10; SW-620; COLO 205; HCT-15; HCC 2998.
Holding throughout (assay): DTP human tumour cell line panel, 48 h

Take `CC(C)(O)/C=C/C(=O)[C@](C)(O)[C@H]1[C@H](O)C[C@@]2(C)[C@@H]3CC=C4[C@@H](C[C@H](O)C(=O)C4(C)C)[C@]3(C)C(=O)C[C@]12C` [CUCURBITACIN D]: the GI50 (as a rule, the concentration giving 50% growth inhibition) in the experiment on NCI-H460 is 0.0895 µM (active); in the experiment with SF-539 it was 0.0826 µM (active); with SK-OV-3, 0.281 µM (active); in the experiment on SF-268, 0.104 µM (active); in the experiment on OVCAR-3 it was 0.201 µM (active); in the experiment with NCI-H226 it was 0.277 µM (active). Moreover, the GI50 in the experiment on SR is 0.118 µM (active); with RXF 393, 0.0964 µM (active); in the experiment with MOLT-4, 0.953 µM (active); in the experiment on SK-MEL-2, 0.0543 µM (active); in the experiment on HOP-92 it was 0.195 µM (active); in the experiment on M14 it was 0.076 µM (active). Also, the 50% growth inhibitory concentration (GI50) in the experiment on Malme-3M was 0.0679 µM (active); in the experiment with K562, 0.287 µM (active); with HL-60, 0.262 µM (active); in the experiment on TK-10, 0.239 µM (active); in the experiment on SW-620, 0.0914 µM (active); with COLO 205, 0.181 µM (active).

With `CC(=O)n1nnc2ccc([N+](=O)[O-])cc21`, the GI50 in the experiment with NCI-H460, in the experiment with SF-539, in the experiment with SK-OV-3, in the experiment on SF-268, in the experiment on OVCAR-3 and in the experiment on NCI-H226 was > 100 µM (inactive) in each case. Further, the GI50 in the experiment with SR, with RXF 393, with MOLT-4, in the experiment on SK-MEL-2, with HOP-92 and in the experiment with M14 was > 100 µM (inactive) each time. Also, the GI50 with Malme-3M, in the experiment on K562, in the experiment with HL-60, with TK-10, in the experiment with SW-620 and in the experiment with COLO 205 was > 100 µM (inactive) in each case.

Consider `NC(=O)c1ccccc1NC(=O)C(=O)Nc1n[nH]c(N)n1`, for which the GI50 with NCI-H460 is > 100 µM (inactive); with HCT-15 it was > 100 µM; in the experiment on SF-539, > 100 µM (inactive); with SK-OV-3 it was > 100 µM (inactive); with OVCAR-3, > 100 µM (inactive); in the experiment on NCI-H226, > 100 µM (inactive). The GI50 in the experiment on SR, with RXF 393, with HCC 2998, in the experiment on MOLT-4, with SK-MEL-2 and in the experiment on M14 was > 100 µM (inactive) in each case. Also, the GI50 in the experiment on Malme-3M, with K562, in the experiment on HL-60, in the experiment on TK-10, with SW-620 and in the experiment on COLO 205 was > 100 µM (inactive) each time.

Turning to `C#C[C@H](CCCC)OC(=O)N[C@H](C)c1ccccc1`, the GI50 with NCI-H460 was 58.2 µM (inactive); in the experiment with SK-OV-3 it was > 100 µM (inactive); with SF-268, 63.7 µM (inactive); with OVCAR-3, 53.3 µM (inactive); with SR, 26.9 µM (inactive); with RXF 393, 30.9 µM (inactive). Further, the GI50 is 31.3 µM (inactive) with MOLT-4; 36.1 µM (inactive) in the experiment with SK-MEL-2; 57.5 µM (inactive) with HOP-92; 41.8 µM (inactive) with M14; 34.6 µM (inactive) with K562; 17.5 µM (inactive) with HL-60. The figures for the GI50 in the experiment with TK-10, in the experiment on SW-620 and with COLO 205 were 37.8 µM (inactive), 68.2 µM (inactive) and 21.7 µM (inactive), respectively.

With `CN(C)/C=N/CC(O)c1ccccc1` (centres undefined), the GI50 in the experiment with NCI-H460 was > 100 µM (inactive); in the experiment with HCT-15, > 100 µM; in the experiment on SF-539, > 100 µM (inactive); with SK-OV-3, > 100 µM (inactive); with SF-268, > 100 µM (inactive); in the experiment with OVCAR-3, > 100 µM (inactive). Besides, the GI50 in the experiment with NCI-H226, in the experiment with SR, in the experiment with RXF 393, in the experiment on MOLT-4, with SK-MEL-2 and with HOP-92 was > 100 µM (inactive) in each case. For the same molecule, the GI50 in the experiment on M14, in the experiment with Malme-3M, in the experiment with K562, in the experiment on HL-60, with TK-10 and in the experiment with SW-620 was > 100 µM (inactive) throughout. Besides, the GI50 in the experiment with COLO 205 is > 100 µM (inactive).

Consider `Nc1nc(Cl)cc(NCC2(CO)CCC(OCc3ccccc3)C2)n1` (centres undefined), for which the GI50 in the experiment with NCI-H460 was 19.3 µM (inactive); in the experiment on HCT-15, 15 µM; in the experiment with SF-539, 29.7 µM (inactive); with SK-OV-3, 11.1 µM (inactive); in the experiment on SF-268 it was 26.2 µM (inactive); in the experiment with OVCAR-3 it was 30.5 µM (inactive). The GI50 was 14.8 µM (inactive) with NCI-H226; 4.06 µM (inactive) in the experiment on SR; 27 µM (inactive) in the experiment with RXF 393; 4.99 µM (inactive) in the experiment on MOLT-4; 21.3 µM (inactive) with SK-MEL-2; 3.57 µM (inactive) with HOP-92. Moreover, the GI50 in the experiment on M14 was 20.7 µM (inactive); with Malme-3M, 20.8 µM (inactive); in the experiment with K562 it was 7.26 µM (inactive); in the experiment on HL-60 it was 21.4 µM (inactive); in the experiment with TK-10, 11.2 µM (inactive); with SW-620, 60 µM (inactive). Also, in the experiment with COLO 205, the GI50 was 21.1 µM (inactive).

Turning to `COc1ccc2c(c1)O[C@H]1c3ccc(O)cc3OC[C@@H]21`, the GI50 in the experiment with NCI-H460 was 35.1 µM (inactive); with HCT-15, 34.1 µM; in the experiment on SF-539, 20.7 µM (inactive); in the experiment on SK-OV-3, 39.5 µM (inactive); in the experiment with SF-268, 28.1 µM (inactive); in the experiment with OVCAR-3, 29.2 µM (inactive). The GI50 in the experiment with NCI-H226 is 25.1 µM (inactive); in the experiment on SR, 14.3 µM (inactive); in the experiment with RXF 393, 19.3 µM (inactive); with HCC 2998, 22.9 µM (inactive); in the experiment with MOLT-4, 19.8 µM (inactive); in the experiment with SK-MEL-2, 26.5 µM (inactive). Besides, the GI50 is 19.2 µM (inactive) in the experiment with M14; 34.8 µM (inactive) with Malme-3M; 30.1 µM (inactive) in the experiment with K562; 18.1 µM (inactive) in the experiment on HL-60; 35.3 µM (inactive) with TK-10; 33 µM (inactive) in the experiment on SW-620. In addition, the GI50 in the experiment on COLO 205 was 24.1 µM (inactive).

For `C=C(Br)CN(C)CC(=C)Br`, the GI50 with NCI-H460 is > 100 µM (inactive); in the experiment on HCT-15, > 100 µM; with SK-OV-3 it was > 100 µM (inactive); in the experiment with SF-268, > 100 µM (inactive); with OVCAR-3 it was > 100 µM (inactive); in the experiment with SR it was > 100 µM (inactive). Further, the GI50 in the experiment on RXF 393, with MOLT-4, in the experiment with SK-MEL-2, with HOP-92, in the experiment on M14 and in the experiment on Malme-3M was > 100 µM (inactive) throughout. In addition, the GI50 is > 100 µM (inactive) with K562; > 100 µM (inactive) in the experiment on HL-60; 50.1 µM (inactive) in the experiment with TK-10; > 100 µM (inactive) in the experiment with SW-620; > 100 µM (inactive) with COLO 205.

As for `CN(C)c1ccc(/C=C/c2ccnc3ccc4ccccc4c23)cc1`, the GI50 was 29.6 µM (inactive) in the experiment with NCI-H460; 45.9 µM in the experiment on HCT-15; 28.4 µM (inactive) in the experiment on SF-539; 27.9 µM (inactive) in the experiment with SK-OV-3; 39.7 µM (inactive) with SF-268; 51.9 µM (inactive) with OVCAR-3. The GI50 in the experiment on SR was 13.2 µM (inactive); with RXF 393 it was 17.7 µM (inactive); in the experiment on MOLT-4, > 100 µM (inactive); in the experiment with SK-MEL-2, 25.6 µM (inactive); in the experiment with HOP-92, 73.1 µM (inactive); in the experiment on M14, 81.3 µM (inactive). Also, the GI50 in the experiment on Malme-3M is 25.3 µM (inactive); in the experiment on K562, 53 µM (inactive); with HL-60, > 100 µM (inactive); with TK-10 it was 19.1 µM (inactive); in the experiment with SW-620, 47 µM (inactive); in the experiment on COLO 205, 53.1 µM (inactive).

`Cc1cc(O)nc(NNC(C#N)c2ccc(O)cc2)n1` (centres undefined): the GI50 is > 100 µM (inactive) in the experiment on NCI-H460; > 100 µM in the experiment on HCT-15; > 100 µM (inactive) with SF-539; > 100 µM (inactive) in the experiment on SK-OV-3; > 100 µM (inactive) in the experiment with SF-268; > 100 µM (inactive) in the experiment with OVCAR-3. The GI50 in the experiment on NCI-H226, with SR, in the experiment on RXF 393, with MOLT-4, with SK-MEL-2 and with HOP-92 was > 100 µM (inactive) each time. In addition, the GI50 in the experiment with M14, in the experiment with Malme-3M, with K562, in the experiment on HL-60, in the experiment on TK-10 and in the experiment with SW-620 was > 100 µM (inactive) each time. Moreover, the GI50 in the experiment with COLO 205 is > 100 µM (inactive).

As for `C=C(C)COc1ccc2c(c1)CCC1C2CCC2(C)C(=O)/C(=N/O)CC12` (centres undefined), the GI50 with NCI-H460 is 1.57 µM (inactive); in the experiment with HCT-15, 2.41 µM; with SF-539, 12.8 µM (inactive); in the experiment with SK-OV-3, 8.55 µM (inactive); with SF-268, 3.81 µM (inactive); in the experiment on OVCAR-3, 3.43 µM (inactive). In addition, the GI50 is 9.31 µM (inactive) with NCI-H226; 0.966 µM (active) in the experiment with SR; 1.19 µM (inactive) with RXF 393; 1.76 µM (inactive) with MOLT-4; 4.14 µM (inactive) in the experiment with SK-MEL-2; 2.3 µM (inactive) in the experiment on HOP-92. In addition, the GI50 was 4.13 µM (inactive) in the experiment on M14; 13.8 µM (inactive) in the experiment with Malme-3M; 2.73 µM (inactive) in the experiment with K562; 1.78 µM (inactive) in the experiment on HL-60; 1.35 µM (inactive) in the experiment on TK-10; 1.99 µM (inactive) with SW-620. Also, in the experiment on COLO 205, the GI50 was 3.21 µM (inactive).
